# According to US20160022775A1, “TREATING LYSOSOMAL STORAGE DISEASE” (UNIVERSITY OF ROCHESTER, priority 2013, published 2016):
# Experiments:
# primary OPCs = test: Survival of OPCs exposed to toxic lipids (calcein AM / propidium iodide, CELIGO); type: cell-based
# Method: Whether toxic lipids have similar effects on the function of oligodendrocyte precursor cells (OPCs, the direct ancestors of myelin-forming oligodendrocytes), due to the common features of myelin breakdown and failure to repair such damage in LSDs, was determined. These experiments all used standard techniques (see Mayer et al. PNAS, 91: 7496-7500 (1994); Ibarrola et al. Dev. Biol. 180: 1-121 (1996); Smith et al. PNAS 97: 10032-10037 (2000); Power et al. Dev. Biol. 245: 362-375 (2002); Dietrich et al. J. Biol. 5: e22 (2006); Li et al. PLoS Biol. 5: e35 (2007)), as adapted to enable rapid automated analysis of microscopy images captured using the CELIGO® imaging system (Brooks Automation, Chelmsford, Mass.). This system enables collection of data using brightfield and three-color fluorescence and provides similar information to be obtained at the single cell level in adherent cell cultures as yielded by flow cytometry. This approach enables quantitatively analysis of 80 different experimental conditions (in triplicate) per hour.
# (§1) Studies on division and survival of OPCs exposed to 0.1, 0.5, 1, 2, 5 or 10 μM PC, GPS or LS were conducted for 1, 2, 3 or 5 days. These experiments followed standard procedures (see Mayer et al. PNAS, 91: 7496-7500 (1994); Dietrich et al. J. Biol. 5: e22 (2006); and Han et al. J. Biol. 7 (4):12 (2008)) except that cell death was quantified using calcein AM and propidium iodide (PI) labeling of live cultures was used to identify live and dead cells, respectively. […] These dyes effectively overcome the problems with dyes for which cell numbers are inferred from metabolic activity (e.g., MTT, Alamar Blue), and provide quantitative information on cell numbers. Independent confirmation was obtained in all cases by visual examination of cultures. In these, and all other cases, all experiments were repeated at least three times, and all data points were collected in triplicate. All experiments were conducted in conditions of 5% O2, to more closely mimic physiological oxygen concentrations.
# The sensitivity of primary OPCs to PC was determined. The sensitivity of the cells to glucopsychosine (GPC) and lysosulfatide (LS) was also examined. […] Thus, OPCs are even more sensitive to PC than oligodendrocytes, which are sensitive at 10 μM psychosine. More critically, they are an order of magnitude more sensitive than indicated by studies described in Zaka et al. (Mol. Cell Neurosci. 30 (3): 398-407 (2005)) on immortalized cell lines.
# OPCs = test: OPC division by clonal analysis in the presence of psychosine; type: cell-based, rat; conditions: OPCs grown in the presence of PDGF for 6 days
# Method: As shown, by day 3 even 3.3 μM PC caused marked cell death. Division was analyzed by clonal analysis, and exposure to 1 μM PC caused a marked reduction in clonal size for cells grown in the presence of PDGF for 6 days.
# as §1
# [1] = system: oligodendrocyte progenitor cells; test: Migration of oligodendrocyte progenitor cells outward from a drop of cells; type: cell-based; conditions: OPCs exposed to PDGF; not a lethal level
# Method: Exposure of oligodendrocyte progenitor cells to 1 μM psychosine is enough to greatly reduce cell migration.
# Another aspect of psychosine function is to cause alterations in the cytoskeleton, which in dividing cells is manifested as a failure of migration. The migration of oligodendrocyte progenitor cells outward from a drop of cells was examined. Cells were stained with calcein to label living cells and propidium iodide (PI) to label dead cells. […] This effect was observed on multiple cell types.
# [2] = system: human fetal neuroepithelial stem cells (hNSCs); test: Sensitivity of human CNS precursor cells to toxic lipids; type: cell-based
# [3] = system: lysosomal pH of cells exposed to psychosine; test: Lysosomal pH in cells exposed to psychosine; type: cell-based; conditions: cells exposed to psychosine versus normal cells
# Excerpt: The effects of cytoskeletal collapse and changes in lysosomal pH were examined. […] The agents that protect both division and survival also restore lysosomal pH to a normal range. However, […] that rescue cell division examined for their effects on lysosomal pH also restore normal levels of pH. Thus, rescuing lysosomal pH is not sufficient to rescue cell survival. Further, agents chosen solely on the basis of rescue of lysosomal pH are not sufficient to also function as rescue agents in cell survival.
# oligodendrocytes = conditions: cited from earlier work
# [4] = system: immortalized cell line characterized as an oligodendrocyte progenitor cell line; conditions: Zaka et al.; over 24 hours; cited from earlier work
structure (smiles),measurement,setting,value
CCCCCCCCCCCCC/C=C/[C@@H](O)[C@@H](N)CO[C@@H]1O[C@H](CO)[C@H](O)[C@H](O)[C@H]1O [psychosine],exposure level as low as which toxic for OPCs,primary OPCs,5 µM
same,concentration causing marked cell death,"primary OPCs; purified OPCs, by day 3, calcein AM, CELIGO",3.3 µM
same,concentration causing marked reduction in clonal size,OPCs,1 µM
same,concentration enough to greatly reduce cell migration,[1],1 µM
same,vulnerability of hNSCs compared with rat OPCs,[2],at least as vulnerable
same,effect on pH of exposed cells,[3],becomes more alkaline
same,concentration at which oligodendrocytes are sensitive,oligodendrocytes,10 µM
same,concentration at which immortalized OPC line is vulnerable / marked cell death,[4],50 µM
